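Assay format: 96-well plates, 48-hour exposure. Abbreviation: GI50, concentration required for 50% inhibition of growth.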 The source made the active and inactive calls. Rule as the data show it: active = GI50 up to about 1.1 µM and inactive = higher.
Legend:
Assay in all cases: growth of human tumour cells (NCI), 48 h
MDA-N = system: MDA-N
RXF 393 = system: RXF 393
NCI-H522 = system: NCI-H522
LOX IMVI = system: LOX IMVI
UO-31 = system: UO-31
SF-295 = system: SF-295
HCC 2998 = system: HCC 2998
ACHN = system: ACHN
OVCAR-4 = system: OVCAR-4
DU-145 = system: DU-145
A549 = system: A549
A498 = system: A498
T47D = system: T47D
SW-620 = system: SW-620
Hs-578T = system: Hs-578T
SNB-75 = system: SNB-75
EKVX = system: EKVX
SNB-19 = system: SNB-19
OVCAR-8 = system: OVCAR-8
KM12 = system: KM12
SK-MEL-5 = system: SK-MEL-5
RPMI-8226 = system: RPMI-8226
NCI/ADR-RES = system: NCI/ADR-RES
SF-539 = system: SF-539
MDA-MB-231 = system: MDA-MB-231
SK-MEL-28 = system: SK-MEL-28
NCI-H23 = system: NCI-H23
SK-OV-3 = system: SK-OV-3
IGROV-1 = system: IGROV-1
CAKI-1 = system: CAKI-1
COLO 205 = system: COLO 205
SN12C = system: SN12C
U-251 = system: U-251
MCF7 = system: MCF7
MDA-MB-435 = system: MDA-MB-435
SK-MEL-2 = system: SK-MEL-2
CCRF-CEM = system: CCRF-CEM
HT-29 = system: HT-29
MOLT-4 = system: MOLT-4
PC-3 = system: PC-3
HOP-92 = system: HOP-92
TK-10 = system: TK-10
K562 = system: K562
UACC-257 = system: UACC-257
SR = system: SR
M14 = system: M14
Malme-3M = system: Malme-3M
HL-60 = system: HL-60
OVCAR-3 = system: OVCAR-3
OVCAR-5 = system: OVCAR-5
786-0 = system: 786-0
NCI-H460 = system: NCI-H460
BT-549 = system: BT-549
SF-268 = system: SF-268
HCT-15 = system: HCT-15
HCT-116 = system: HCT-116
UACC-62 = system: UACC-62
HOP-62 = system: HOP-62
NCI-H226 = system: NCI-H226

C[C@]12CC[C@@H]3c4cc(OCC(F)(F)F)c(O)cc4C(=O)C[C@H]3[C@@H]1CC[C@@H]2O
GI50 (MDA-N): 1.6 µM (inactive)
GI50 (RXF 393): 13 µM (inactive)
GI50 (NCI-H522): 3.3 µM (inactive)
GI50 (LOX IMVI): 5.79 µM (inactive)
GI50 (UO-31): 13.6 µM (inactive)
GI50 (SF-295): 3.6 µM (inactive)
GI50 (HCC 2998): 6.11 µM (inactive)
GI50 (ACHN): 20.7 µM (inactive)
GI50 (OVCAR-4): 27.2 µM (inactive)
GI50 (DU-145): 17.3 µM (inactive)
GI50 (A549): 6.98 µM (inactive)
GI50 (A498): 7.93 µM (inactive)
GI50 (T47D): 29.1 µM (inactive)
GI50 (SW-620): 4.02 µM (inactive)
GI50 (Hs-578T): 4.92 µM (inactive)
GI50 (SNB-75): 5.36 µM (inactive)
GI50 (EKVX): 14.7 µM (inactive)
GI50 (SNB-19): 13.5 µM (inactive)
GI50 (OVCAR-8): 23.1 µM (inactive)
GI50 (KM12): 10.6 µM (inactive)
GI50 (SK-MEL-5): 5.87 µM (inactive)
GI50 (RPMI-8226): 3.2 µM (inactive)
GI50 (NCI/ADR-RES): 6.35 µM (inactive)
GI50 (SF-539): 5.09 µM (inactive)
GI50 (MDA-MB-231): 12.9 µM (inactive)
GI50 (SK-MEL-28): 7.64 µM (inactive)
GI50 (NCI-H23): 12 µM (inactive)
GI50 (SK-OV-3): 10.6 µM (inactive)
GI50 (IGROV-1): 13.6 µM (inactive)
GI50 (CAKI-1): 6.93 µM (inactive)
GI50 (COLO 205): 26.6 µM (inactive)
GI50 (SN12C): 13.1 µM (inactive)
GI50 (U-251): 4.67 µM (inactive)
GI50 (MCF7): 5.07 µM (inactive)
GI50 (MDA-MB-435): 1.78 µM (inactive)
GI50 (SK-MEL-2): 11.4 µM (inactive)
GI50 (CCRF-CEM): 3.39 µM (inactive)
GI50 (HT-29): 12.9 µM (inactive)
GI50 (MOLT-4): 3.5 µM (inactive)
GI50 (PC-3): 18.5 µM (inactive)
GI50 (HOP-92): 20.7 µM (inactive)
GI50 (TK-10): 18.7 µM (inactive)
GI50 (K562): 2.26 µM (inactive)
GI50 (UACC-257): 12.2 µM (inactive)
GI50 (SR): 1.51 µM (inactive)
GI50 (M14): 5.77 µM (inactive)
GI50 (Malme-3M): 3.63 µM (inactive)
GI50 (HL-60): 1.84 µM (inactive)
GI50 (OVCAR-3): 2.88 µM (inactive)
GI50 (OVCAR-5): 29.9 µM (inactive)
GI50 (786-0): 10.8 µM (inactive)
GI50 (NCI-H460): 4.71 µM (inactive)
GI50 (BT-549): 6.34 µM (inactive)
GI50 (SF-268): 13.7 µM (inactive)
GI50 (HCT-15): 4.18 µM
GI50 (HCT-116): 3.72 µM (inactive)
GI50 (UACC-62): 3.26 µM (inactive)
GI50 (HOP-62): 12.6 µM (inactive)
GI50 (NCI-H226): 22.5 µM (inactive)

O=C(O)c1ccccc1NC(c1ccccc1)c1ccc2cccnc2c1O (stereo not drawn)
GI50 (MDA-N): 13.4 µM (inactive)
GI50 (RXF 393): 10 µM (inactive)
GI50 (NCI-H522): 3.97 µM (inactive)
GI50 (LOX IMVI): 7.96 µM (inactive)
GI50 (UO-31): 6.12 µM (inactive)
GI50 (SF-295): 4.37 µM (inactive)
GI50 (HCC 2998): 12.3 µM (inactive)
GI50 (ACHN): 9.18 µM (inactive)
GI50 (OVCAR-4): 5.78 µM (inactive)
GI50 (DU-145): 18.7 µM (inactive)
GI50 (A549): 5.56 µM (inactive)
GI50 (A498): 24.6 µM (inactive)
GI50 (T47D): 11.3 µM (inactive)
GI50 (SW-620): 5.4 µM (inactive)
GI50 (Hs-578T): 22.4 µM (inactive)
GI50 (SNB-75): 29.3 µM (inactive)
GI50 (EKVX): 6.18 µM (inactive)
GI50 (SNB-19): 5.24 µM (inactive)
GI50 (OVCAR-8): 4.85 µM (inactive)
GI50 (KM12): 5.31 µM (inactive)
GI50 (SK-MEL-5): 8.39 µM (inactive)
GI50 (RPMI-8226): 3.04 µM (inactive)
GI50 (NCI/ADR-RES): 3.77 µM (inactive)
GI50 (SF-539): 5.14 µM (inactive)
GI50 (MDA-MB-231): 12.1 µM (inactive)
GI50 (SK-MEL-28): 6.41 µM (inactive)
GI50 (NCI-H23): 12.6 µM (inactive)
GI50 (SK-OV-3): 16.8 µM (inactive)
GI50 (IGROV-1): 20.4 µM (inactive)
GI50 (CAKI-1): 9.44 µM (inactive)
GI50 (COLO 205): 15.7 µM (inactive)
GI50 (SN12C): 6.58 µM (inactive)
GI50 (U-251): 4.08 µM (inactive)
GI50 (MCF7): 4.85 µM (inactive)
GI50 (MDA-MB-435): 14.8 µM (inactive)
GI50 (SK-MEL-2): 25.2 µM (inactive)
GI50 (CCRF-CEM): 1.93 µM (inactive)
GI50 (HT-29): 4.4 µM (inactive)
GI50 (MOLT-4): 4.06 µM (inactive)
GI50 (PC-3): 9.04 µM (inactive)
GI50 (HOP-92): 26.9 µM (inactive)
GI50 (TK-10): 13.8 µM (inactive)
GI50 (K562): 8.87 µM (inactive)
GI50 (UACC-257): 14 µM (inactive)
GI50 (SR): 2.06 µM (inactive)
GI50 (M14): 5.81 µM (inactive)
GI50 (Malme-3M): 15.8 µM (inactive)
GI50 (HL-60): 1.2 µM (inactive)
GI50 (OVCAR-3): 3.63 µM (inactive)
GI50 (OVCAR-5): 8.97 µM (inactive)
GI50 (786-0): 4.39 µM (inactive)
GI50 (NCI-H460): 4.03 µM (inactive)
GI50 (BT-549): 11 µM (inactive)
GI50 (SF-268): 5.19 µM (inactive)
GI50 (HCT-15): 4.42 µM
GI50 (HCT-116): 3.65 µM (inactive)
GI50 (UACC-62): 11.6 µM (inactive)
GI50 (HOP-62): 7.67 µM (inactive)
GI50 (NCI-H226): 4.27 µM (inactive)

From ChEMBL document CHEMBL1201862, “PubChem BioAssay data set” (2004)
